Measured values as given in article PMC8518794 (2021).

Legend:
[1] = tested on: pApU (poly rA–poly rU; polyAU) (RNA, polymer) A/U; assay: fluorimetric titration, Scatchard / McGhee-von Hippel; conditions: Na+ (sodium cacodylate); pH 7; sodium cacodylate buffer; r fixed at 0.25; compound 1×10^-7 M; per base
[2] = tested on: pApU (poly rA–poly rU; polyAU) (RNA, polymer) A/U; assay: UV thermal denaturation; conditions: Na+ (sodium cacodylate); pH 7; r[compound]/[polynucleotide] = 0.3; error ±0.5 °C; per base
[3] = tested on: pApU (poly rA–poly rU; polyAU) (RNA, polymer) A/U; assay: fluorimetric titration; conditions: Na+ (sodium cacodylate); pH 7; compound 1×10^-7 M; negligible emission change

Structure (SMILES)	log Ks [1]	ΔTm [2] [°C]	binding [3]
Cc1cc(C)c(B(c2c(C)cc(-c3ccc(-c4ccc(-c5cc(C)c(B(c6c(C)cc(C)cc6C)c6c(C)cc([N+](C)(C)C)cc6C)c(C)c5)s4)s3)cc2C)c2c(C)cc([N+](C)(C)C)cc2C)c(C)c1	7.8	13.0	–
Cc1cc(C)c(B(c2c(C)cc(-c3ccc(-c4ccc(-c5cc(C)c(B(c6c(C)cc([N+](C)(C)C)cc6C)c6c(C)cc([N+](C)(C)C)cc6C)c(C)c5)s4)s3)cc2C)c2c(C)cc([N+](C)(C)C)cc2C)c(C)c1	7.5	5.5	–
Cc1cc(C)c(B(c2c(C)cc(C)cc2C)c2c(C)cc(-c3ccc(-c4ccc(-c5cc(C)c(B(c6c(C)cc(C)cc6C)c6c(C)cc([N+](C)(C)C)cc6C)c(C)c5)s4)s3)cc2C)c(C)c1	–	0	no
Cc1cc(C)c(B(c2c(C)cc(C)cc2C)c2c(C)cc(-c3ccc(-c4ccc(-c5cc(C)c(B(c6c(C)cc([N+](C)(C)C)cc6C)c6c(C)cc([N+](C)(C)C)cc6C)c(C)c5)s4)s3)cc2C)c(C)c1	7.0	11.1	–
